Experimental data from patent US20230295113A1, “NLRP3 MODULATORS” (ZOMAGEN BIOSCIENCES LTD, priority 2022, published 2023).

system: IL-1b; assay: Human Monocyte IL-1b Assay; type: cell-based; conditions: Homo sapiens, Monocyte, fresh human whole blood; compound 0.5 h, 100 ng/mL LPS 3.5 h at 37° C., 5 mM ATP 45 min; IL-1b in supernatant by ELISA
Method: Example 46: Human Monocyte IL-1b Assay
Serially diluted testing compounds were incubated with […] of fresh human whole blood for 0.5 hours. Cells were primed with 100 ng/mL lipopolysaccharide (LPS) for 3.5 hours at 37° C. followed by stimulation with 5 mM ATP for an additional 45 minutes. The concentration of IL-1b concentration in the supernatant was determined with commercially available ELISA kits. Negative controls are wells without stimulation, while positive controls are wells with stimulation but only DMSO without compounds added. After background subtraction, compound treatment wells were then normalized to the positive controls for IC50 calculations.

Row | SMILES | IC50 [nM]
1 | Cc1cc(C(=O)c2cccnc2)nnc1-c1ccc(C(F)(F)F)cc1O [Compound 13, (6-(2-hydroxy-4-(trifluoromethyl)phenyl)-5-methylpyridazin-3-yl)(pyridin-3-yl)methanone] | 500 to 3000
2 | Cc1cc(C(=O)C2CCCN(C)C2)nnc1-c1ccc(C(F)(F)F)cc1O (centres unmarked) [Compound 14, (6-(2-hydroxy-4-(trifluoromethyl)phenyl)-5-methylpyridazin-3-yl)(1-methylpiperidin-3-yl)methanone] | < 500
3 | Cc1cc(C(C)(O)C2CCCN(C)C2)nnc1-c1ccc(C(F)(F)F)cc1O (centres unmarked) [Compound 15, 2-(6-(1-hydroxy-1-(1-methylpiperidin-3-yl)ethyl)-4-methylpyridazin-3-yl)-5-(trifluoromethyl)phenol] | < 500
4 | Cc1cc(C(=NO)C2CCCN(C)C2)nnc1-c1ccc(C(F)(F)F)cc1O (centres unmarked) [Compound 16, (6-(2-hydroxy-4-(trifluoromethyl)phenyl)-5-methylpyridazin-3-yl)(1-methylpiperidin-3-yl)methanone oxime] | < 500
5 | Cc1cc([C@@H](O)[C@@H]2CCCN(C)C2)nnc1-c1ccc(C(F)(F)F)cc1O [Compound 17A, 2-(6-((S)-hydroxy((R)-1-methylpiperidin-3-yl)methyl)-4-methylpyridazin-3-yl)-5-(trifluoromethyl)phenol] | < 500
6 | Cc1cc([C@H](O)[C@@H]2CCCN(C)C2)nnc1-c1ccc(C(F)(F)F)cc1O [Compound 17B, 2-(6-((R)-hydroxy((R)-1-methylpiperidin-3-yl)methyl)-4-methylpyridazin-3-yl)-5-(trifluoromethyl)phenol] | < 500
7 | Cc1cc([C@H](O)[C@H]2CCCN(C)C2)nnc1-c1ccc(C(F)(F)F)cc1O [Compound 17C, 2-(6-((R)-hydroxy((S)-1-methylpiperidin-3-yl)methyl)-4-methylpyridazin-3-yl)-5-(trifluoromethyl)phenol] | < 500
8 | Cc1cc([C@@H](O)[C@H]2CCCN(C)C2)nnc1-c1ccc(C(F)(F)F)cc1O [Compound 17D, 2-(6-((S)-hydroxy((S)-1-methylpiperidin-3-yl)methyl)-4-methylpyridazin-3-yl)-5-(trifluoromethyl)phenol] | 500 to 3000
9 | [2H][C@@](O)(c1cc(C)c(-c2ccc(C(F)(F)F)cc2O)nn1)[C@@H]1CCCN(C)C1 [Compound 18, 2-(6-((S)-hydroxy((R)-1-methylpiperidin-3-yl)methyl-d)-4-methylpyridazin-3-yl)-5-(trifluoromethyl)phenol] | < 500
10 | Cc1cc(C)c(-c2ccc(C(O)C3CCCN(C)C3)nn2)c(O)c1 (centres unmarked) [Compound 19, 2-(6-(hydroxy(1-methylpiperidin-3-yl)methyl)pyridazin-3-yl)-3,5-dimethylphenol] | < 500
11 | Cc1cc([C@H](O)C2CN3CCC2CC3)nnc1-c1ccc(C(F)(F)F)cc1O (stereo partly drawn) [Compound 28A, 2-(6-((1R)-hydroxy(quinuclidin-3-yl)methyl)-4-methylpyridazin-3-yl)-5-(trifluoromethyl)phenol] | < 500
12 | Cc1cc([C@@H](O)C2CN3CCC2CC3)nnc1-c1ccc(C(F)(F)F)cc1O (stereo partly drawn) [Compound 28B, 2-(6-((1S)-hydroxy(quinuclidin-3-yl)methyl)-4-methylpyridazin-3-yl)-5-(trifluoromethyl)phenol] | 500 to 3000
13 | Cc1cc(C(O)C2CCC3CCC2N3C)nnc1-c1ccc(C(F)(F)F)cc1O (centres unmarked) [Compound 34, 2-(6-(hydroxy(8-methyl-8-azabicyclo[3.2.1]octan-2-yl)methyl)-4-methylpyridazin-3-yl)-5-(trifluoromethyl)phenol] | < 500
14 | Cc1cc(C(O)C23CC(CN(C)C2)C3)nnc1-c1ccc(C(F)(F)F)cc1O (centres unmarked) [Compound 35, 2-(6-(hydroxy(3-methyl-3-azabicyclo[3.1.1]heptan-1-yl)methyl)-4-methylpyridazin-3-yl)-5-(trifluoromethyl)phenol] | 500 to 3000

The remaining lines, values ahead:

Row | IC50 [nM] | SMILES
15 | < 500 | Cc1cc(C(F)(F)F)cc(O)c1-c1ccc(C(O)C2CCCN(C)C2)nn1 (centres unmarked) [Compound 20, 2-(6-(hydroxy(1-methylpiperidin-3-yl)methyl)pyridazin-3-yl)-3-methyl-5-(trifluoromethyl)phenol]
16 | 3000 to 10000 | Oc1cc(C(F)(F)F)ccc1-c1ccc(CC2(O)CCCNC2)nn1 (centres unmarked) [Compound 21, 3-((6-(2-hydroxy-4-(trifluoromethyl)phenyl)pyridazin-3-yl)methyl)piperidin-3-ol]
17 | < 500 | CC(c1nnc(-c2ccc(C(F)(F)F)cc2O)c2ccccc12)C1CCCNC1 (centres unmarked) [Compound 22, 2-(4-(1-(piperidin-3-yl)ethyl)phthalazin-1-yl)-5-(trifluoromethyl)phenol]
18 | 3000 to 10000 | CN1CCC(=O)C(C(O)c2ccc(-c3ccc(C(F)(F)F)cc3O)nn2)C1 (centres unmarked) [Compound 23, 3-(hydroxy(6-(2-hydroxy-4-(trifluoromethyl)phenyl)pyridazin-3-yl)methyl)-1-methylpiperidin-4-one]
19 | < 500 | COc1cc(C(F)(F)F)ccc1-c1nnc([C@H](O)[C@@H]2CCCN(C)C2)cc1C [Compound 24, (R)-(6-(2-methoxy-4-(trifluoromethyl)phenyl)-5-methylpyridazin-3-yl)((R)-1-methylpiperidin-3-yl)methanol]
20 | < 500 | Cc1cc([C@H](O)[C@@H]2CCCN(C3CC3)C2)nnc1-c1ccc(C(F)(F)F)cc1O [Compound 25, 2-(6-((R)-((R)-1-cyclopropylpiperidin-3-yl)(hydroxy)methyl)-4-methylpyridazin-3-yl)-5-(trifluoromethyl)phenol]
21 | < 500 | Cc1cc(C(O)[C@@H]2CCN(C)C2)nnc1-c1ccc(C(F)(F)F)cc1O (stereo partly drawn) [Compound 26, 2-(6-(hydroxy((R)-1-methylpyrrolidin-3-yl)methyl)-4-methylpyridazin-3-yl)-5-(trifluoromethyl)phenol]
22 | 500 to 3000 | Cc1cc([C@H](O)[C@]2(C)CCCN(C)C2)nnc1-c1ccc(C(F)(F)F)cc1O [Compound 27A, 2-(6-((R)-((R)-1,3-dimethylpiperidin-3-yl)(hydroxy)methyl)-4-methylpyridazin-3-yl)-5-(trifluoromethyl)phenol]
23 | 3000 to 10000 | Cc1cc([C@@H](O)[C@]2(C)CCCN(C)C2)nnc1-c1ccc(C(F)(F)F)cc1O [Compound 27B, 2-(6-((S)-((R)-1,3-dimethylpiperidin-3-yl)(hydroxy)methyl)-4-methylpyridazin-3-yl)-5-(trifluoromethyl)phenol]
24 | 3000 to 10000 | COc1cc(C(F)(F)F)ccc1-c1nnc(C(O)C2CN(C)C2)cc1C (centres unmarked) [Compound 30, (6-(2-methoxy-4-(trifluoromethyl)phenyl)-5-methylpyridazin-3-yl)(1-methylazetidin-3-yl)methanol]
25 | < 500 | Cc1cc(C(O)C2CN(C)C2)nnc1-c1ccc(C(F)(F)F)cc1O (centres unmarked) [Compound 31, 2-(6-(hydroxy(1-methylazetidin-3-yl)methyl)-4-methylpyridazin-3-yl)-5-(trifluoromethyl)phenol]
26 | 500 to 3000 | Cc1cc(C(O)C2CCC3CCCN3C2)nnc1-c1ccc(C(F)(F)F)cc1O (centres unmarked) [Compound 38, 2-(6-(hydroxy(octahydroindolizin-6-yl)methyl)-4-methylpyridazin-3-yl)-5-(trifluoromethyl)phenol]
27 | < 500 | Cc1cc(C(O)C2CCCCN2C)nnc1-c1ccc(C(F)(F)F)cc1O (centres unmarked) [Compound 39, 2-(6-(hydroxy(1-methylpiperidin-2-yl)methyl)-4-methylpyridazin-3-yl)-5-(trifluoromethyl)phenol]
28 | < 500 | Cc1cc([C@H](O)[C@@H]2CCCNC2)nnc1-c1ccc(C(F)(F)F)cc1O [Compound 40, 2-(6-((R)-hydroxy((R)-piperidin-3-yl)methyl)-4-methylpyridazin-3-yl)-5-(trifluoromethyl)phenol]
29 | < 500 | Cc1cc([C@H](O)[C@@H]2CCCN(C(C)C)C2)nnc1-c1ccc(C(F)(F)F)cc1O [Compound 41, 2-(6-((R)-hydroxy((R)-1-isopropylpiperidin-3-yl)methyl)-4-methylpyridazin-3-yl)-5-(trifluoromethyl)phenol]
30 | < 500 | Cc1cc(C(O)[C@@H]2CCCN(C)C2)nnc1-c1cc(F)c(C(F)(F)F)cc1O (stereo partly drawn) [Compound 42, 4-fluoro-2-(6-(hydroxy((R)-1-methylpiperidin-3-yl)methyl)-4-methylpyridazin-3-yl)-5-(trifluoromethyl)phenol]

same assay, conditions: Monocyte; fresh human whole blood; compound 0.5 h, 100 ng/mL LPS 3.5 h at 37° C., 5 mM ATP 45 min; IL-1b in supernatant by ELISA

Row | SMILES | IC50 [nM]
31 | Cc1cc(C(O)C23CCCN(CC2)C3)nnc1-c1ccc(C(F)(F)F)cc1O (centres unmarked) [Compound 29, 2-(6-((1-azabicyclo[3.2.1]octan-5-yl)(hydroxy)methyl)-4-methylpyridazin-3-yl)-5-(trifluoromethyl)phenol] | 500 to 3000
32 | Cc1cc(C(O)C2CCCCN(C)C2)nnc1-c1ccc(C(F)(F)F)cc1O (centres unmarked) [Compound 32, 2-(6-(hydroxy(1-methylazepan-3-yl)methyl)-4-methylpyridazin-3-yl)-5-(trifluoromethyl)phenol] | < 500
33 | Cc1cc(C(O)C23CCC(CC2)N(C)C3)nnc1-c1ccc(C(F)(F)F)cc1O (centres unmarked) [Compound 33, 2-(6-(hydroxy(2-methyl-2-azabicyclo[2.2.2]octan-4-yl)methyl)-4-methylpyridazin-3-yl)-5-(trifluoromethyl)phenol] | 500 to 3000
34 | Cc1cc(C(O)C2CC3CC2N(C)C3)nnc1-c1ccc(C(F)(F)F)cc1O (centres unmarked) [Compound 36, 2-(6-(hydroxy(2-methyl-2-azabicyclo[2.2.1]heptan-6-yl)methyl)-4-methylpyridazin-3-yl)-5-(trifluoromethyl)phenol] | < 500
35 | Cc1cc([C@H](O)[C@@H]2CC[C@H]3CCC(=O)N3C2)nnc1-c1ccc(C(F)(F)F)cc1O [Compound 37, (6R,8aS)-6-((R)-hydroxy(6-(2-hydroxy-4-(trifluoromethyl)phenyl)-5-methylpyridazin-3-yl)methyl)hexahydroindolizin-3(2H)-one] | 500 to 3000
